Experimental findings from PubChem BioAssay (NCI) are described below.

What all share (assay): inhibition of tumour cell growth, NCI panel, 48 h
The subject of experiment [1] is A498 renal.
Experiment [2] has as its system EKVX NSCLC.
The subject of experiment [3] is HOP-62 NSCLC.
Experiment [4] has as its system HS 578T breast.
Experiment [5] concerns IGROV1 ovarian.
The test system of experiment [6] is MDA-MB-231 breast.
Experiment [7] relates to OVCAR-5 ovarian.
Experiment [8] relates to SF-539 CNS.
Experiment [9] relates to T-47D breast.
Experiment [10] deals with UACC-62 melanoma.

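Following 48 hours of exposure in 96-well plates, responses at five concentrations were used to interpolate endpoints linearly. The concentration for 50% growth inhibition is given as GI50. At the TGI there is no net growth.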

As to `CC1CCC2(C(=O)O)CCC3(C)C(=CCC4C5(C)CC(O)C(O)C(C)(CO)C5C(O)CC43C)C2C1C` (stereo unspecified), the TGI is 48 µM in experiment [1]; above 100 µM in experiment [2]; above 83.7 µM in [3]; 41.5 µM in experiment [4]; 35.9 µM in [5]; 72 µM in [6]. The TGI was above 100 µM in experiment [7], 75.9 µM in [8], above 84.7 µM in experiment [9] and 47.5 µM in experiment [10].
In the case of `CC1=C(C(=O)Nc2ccc3[nH]ncc3c2)C(c2ccc3ccccc3c2)CC(=O)N1` (stereo unspecified), the GI50 in experiment [1] is 4.22 µM; in experiment [2], above 17.9 µM; in experiment [3], 6.46 µM; in experiment [4], 0.873 µM; in experiment [5] it was 8.08 µM; in experiment [6] it was 11.7 µM. In addition, the GI50 in experiment [7] was 20.5 µM; in experiment [8], 9.18 µM; in [9], above 25 µM; in experiment [10], 14.5 µM. Besides, the TGI in experiment [1] is 22 µM; in experiment [2], above 25 µM; in experiment [3], above 25 µM; in [4] it was above 25 µM; in [5], above 25 µM; in [6], above 25 µM. Further, the TGI in experiment [7], in experiment [8], in [9] and in experiment [10] was above 25 µM each time.
For `O=C1c2c(c3c4ccccc4n(CCCCCCBr)c3c3[nH]c4ccccc4c23)C(=O)N1O`, the GI50 in experiment [1] is 2.89 µM; in [2], 2.58 µM; in [3] it was 2.52 µM; in experiment [4], 5.14 µM; in experiment [5], 2.13 µM; in experiment [6] it was 2.9 µM. For the same compound, the GI50 in experiment [7] was 3.22 µM; in experiment [8], 1.78 µM; in experiment [9], 1.74 µM; in [10], 1.69 µM. Further, the TGI in experiment [1] turned out to be 9.14 µM; in [2], 9.57 µM; in experiment [3], 9.06 µM; in experiment [4], 45.9 µM; in experiment [5] it was 9.38 µM; in experiment [6], 9.52 µM. Further, the TGI was 17.4 µM in experiment [7], 3.77 µM in experiment [8], 7.44 µM in experiment [9] and 4.42 µM in experiment [10].
For `CC1OC(O[C@H]2C[C@@H](O)[C@]3(CO)[C@H]4[C@H](O)C[C@]5(C)[C@@H](C6=CC(=O)OC6)CC[C@]5(O)[C@@H]4CC[C@]3(O)C2)C(O)C(O)C1O` (stereo partly specified), the GI50 in experiment [1] was 20.4 µM; in experiment [2], 16.5 µM; in experiment [3], 21.7 µM; in [4], 25.6 µM; in experiment [5], 19.7 µM; in experiment [6], 21 µM. The GI50 in experiment [7] is 35.7 µM; in [8] it was 21.4 µM; in experiment [9], 24.9 µM; in experiment [10] it was 17.6 µM. Moreover, the TGI in experiment [1] amounted to 39 µM; in experiment [2], 30.5 µM; in [3] it was 51.9 µM; in experiment [4], 65.9 µM; in experiment [5], 36.7 µM; in experiment [6], 40.5 µM. Moreover, the TGI in experiment [7] was above 100 µM; in [8], 39.5 µM; in experiment [9], 51.5 µM; in experiment [10], 32.4 µM.
`CNC(=O)OCc1c(COC(=O)NC)c(-c2ccc(Cl)c(Cl)c2)n2c1SCC2`: the TGI was determined as 2.07 µM in experiment [1]; 72 µM in experiment [2]; 50.7 µM in experiment [3]; 51 µM in [4]; 26.9 µM in experiment [5]; 34.4 µM in [6]. Further, the TGI in experiment [7] was 10.8 µM; in experiment [8], 26.9 µM; in experiment [9] it was 57.2 µM; in [10], 8.94 µM. In experiment [5], the GI50 is 3.16 µM.
For the compound `Nc1ccn(C2O[C@H](CO)[C@@H](O)[C@@H]2O)c(=O)n1` (stereo partly specified), the TGI in experiment [1], in experiment [2], in [3], in experiment [4], in [5] and in experiment [6] was above 100 µM in each case. The TGI in [7], in experiment [8], in experiment [9] and in [10] was above 100 µM throughout. The GI50 in experiment [3] was 64.3 µM.
On to `CCCCC(=O)OCC1OC(n2cnc3c(=S)nc[nH]c32)C(OC(=O)CCCC)C1OC(=O)CCCC` (stereo unspecified), for which the GI50 in [1] was 9.54 µM; in [3] it was 1.01 µM; in experiment [4] it was above 35.4 µM; in [5], 3.86 µM; in [6], 5.22 µM; in [7], 3.65 µM. Further, the results for the GI50 in experiment [8], in experiment [9] and in experiment [10] were 2.07 µM, 1.17 µM and 0.899 µM, respectively. Further, the TGI in [1] is above 96.1 µM; in experiment [2], above 100 µM; in experiment [3], above 100 µM; in [4], above 100 µM; in [5], above 39.4 µM; in [6], above 100 µM. In addition, the TGI was above 100 µM in [7], above 62 µM in experiment [8], above 59 µM in experiment [9] and above 100 µM in [10].
For the compound `CCOc1cccc(/C=N/NC(=O)c2ccccc2Nc2ccnc(C(F)(F)F)c2)c1O`, the GI50 in experiment [1] is 20.1 µM; in experiment [2], 0.404 µM; in experiment [3], 0.901 µM; in experiment [4] it was 6.92 µM; in [5], 0.0425 µM; in [6], 0.7 µM. The GI50 in experiment [7] was 5.39 µM; in experiment [8], 0.501 µM; in experiment [9], 0.582 µM; in experiment [10] it was 0.407 µM. Moreover, the TGI in experiment [1] was above 74.8 µM; in experiment [2], above 100 µM; in [3] it was above 53.8 µM; in experiment [4], above 100 µM; in experiment [5] it was 0.243 µM; in experiment [6], above 100 µM. Further, the TGI in [7] is above 100 µM; in experiment [8] it was 6.33 µM; in experiment [9], 37.5 µM; in experiment [10], 14.7 µM.
